Laboratory results from US8785486B2, “Imidazo[1,2-A]pyridine derivatives and their use as positive allosteric modulators of mGluR2 receptors” (Janssen Pharmaceuticals, Inc., priority 2007, dated 2014).

Key:
[1] = target: T1, human mGluR2 receptor (Homo sapiens, UniProt Q14416); assay: [35S]GTPγS binding assay (PAM assay) using membranes from cells transfected with the human mGluR2 receptor; type: biochemical; conditions: membranes of CHO cells with human mGluR2, glutamate at predetermined EC25 concentration, averages of duplicate values of 11-concentration response curves; for EC50: read-out: GTPγS - hR2 PAM pEC50 (converted)
T1 construct: expressed in transfected cells; host or cells: CHO cells
T1 sequence (Q14416 19-872): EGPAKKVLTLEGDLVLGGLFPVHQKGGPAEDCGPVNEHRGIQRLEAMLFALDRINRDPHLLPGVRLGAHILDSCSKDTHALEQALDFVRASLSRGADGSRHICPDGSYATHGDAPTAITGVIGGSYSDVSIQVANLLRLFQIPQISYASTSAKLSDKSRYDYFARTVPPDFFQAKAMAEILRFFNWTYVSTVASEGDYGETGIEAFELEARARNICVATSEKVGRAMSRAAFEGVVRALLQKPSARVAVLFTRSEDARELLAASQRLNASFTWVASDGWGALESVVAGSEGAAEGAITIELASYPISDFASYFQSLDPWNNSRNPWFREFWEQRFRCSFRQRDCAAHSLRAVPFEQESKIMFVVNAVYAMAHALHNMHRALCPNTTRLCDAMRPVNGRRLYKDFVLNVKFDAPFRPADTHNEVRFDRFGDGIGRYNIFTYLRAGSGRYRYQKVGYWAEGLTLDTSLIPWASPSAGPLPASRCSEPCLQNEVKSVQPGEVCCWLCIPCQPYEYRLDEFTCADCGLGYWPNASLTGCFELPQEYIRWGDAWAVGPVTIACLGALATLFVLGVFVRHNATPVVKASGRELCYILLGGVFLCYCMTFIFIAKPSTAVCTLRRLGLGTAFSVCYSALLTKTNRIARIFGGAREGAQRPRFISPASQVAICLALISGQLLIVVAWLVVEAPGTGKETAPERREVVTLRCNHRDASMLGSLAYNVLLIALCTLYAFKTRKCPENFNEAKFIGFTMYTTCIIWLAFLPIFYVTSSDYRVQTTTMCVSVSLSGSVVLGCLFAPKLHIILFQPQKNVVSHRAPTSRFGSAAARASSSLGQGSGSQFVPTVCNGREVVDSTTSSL
Procedure: The [^35S]GTPγS binding assay is a functional membrane-based assay used to study G-protein coupled receptor (GPCR) function whereby incorporation of a non-hydrolysable form of GTP, [^35S]GTPγS (guanosine 5′-triphosphate, labelled with […] ^35S), is measured.
CHO-cells were cultured to pre-confluence and stimulated with 5 mM butyrate for 24 hours, prior to washing in PBS, and then collection by scraping in homogenisation buffer (50 mM Tris-HCl buffer, pH 7.4, 4° C.). Cell lysates were homogenized briefly (15 s) using an ultra-turrax homogenizer. The homogenate was centrifuged at 23 500×g for 10 minutes and the supernatant discarded. The pellet was resuspended in 5 mM Tris-HCl, pH 7.4 and centrifuged again (30 000×g, 20 min, 4° C.). The final pellet was resuspended in 50 mM HEPES, pH 7.4 and stored at −80° C. in appropriate aliquots before use. Protein concentration was determined by the Bradford method (Bio-Rad, USA) with bovine serum albumin as standard.
Measurement of mGluR2 positive allosteric modulatory activity of test compounds in membranes containing human mGluR2 was performed using frozen membranes that were thawed and briefly homogenised prior to pre-incubation in 96-well microplates (15 μg/assay well, 30 minutes, 30° C.) in assay buffer (50 mM HEPES pH 7.4, 100 mM NaCl, 3 mM MgCl2, 50 μM GDP, 10 μg/ml saponin,) with increasing concentrations of positive allosteric modulator (from 0.3 nM to 50 μM) and either a minimal pre-determined concentration of glutamate (PAM assay), or no added glutamate. […] After addition of [^35S]GTPγS (0.1 nM, f.c.) to achieve a total reaction volume of 200 μl, microplates were shaken briefly and further incubated to allow [^35S]GTPγS incorporation on activation (30 minutes, 30° C.). The reaction was stopped by rapid vacuum filtration over glass-fibre filter plates (Unifilter 96-well GF/B filter plates, Perkin-Elmer, Downers Grove, USA) microplate using a 96-well plate cell harvester (Filtermate, Perkin-Elmer, USA), and then by washing three times with 300 μl of ice-cold wash buffer (Na2PO4.2H2O 10 mM, NaH2PO4.H2O 10 mM, pH=7.4). Filters were then air-dried, and 40 μl of liquid scintillation cocktail (Microscint-O) was added to each well, and membrane-bound [^35S]GTPγS was measured in a 96-well scintillation plate reader (Top-Count, Perkin-Elmer, USA). Non-specific [^35S]GTPγS binding is determined in the presence of cold 10 μM GTP. Each curve was performed at least once using duplicate sample per data point and at 11 concentrations.
The concentration-response curves of representative compounds of the present invention in the presence of added EC25 of mGluR2 agonist glutamate to determine positive allosteric modulation (PAM), were generated using the Prism GraphPad software (Graph Pad Inc, San Diego, USA). The curves were fitted to a four-parameter logistic equation (Y=Bottom+(Top-Bottom)/(1+10^((Log EC50−X)*Hill Slope) allowing determination of EC50 values. The EC50 is the concentration of a compound that causes a half-maximal potentiation of the glutamate response. This is calculated by subtracting the maximal responses of glutamate in presence of a fully saturating concentration of a positive allosteric modulator from the response of glutamate in absence of a positive allosteric modulator. The concentration producing the half-maximal effect is then calculated as EC50

N#Cc1c(-c2ccc(Sc3ccccc3)cc2)ccn2c(CC(F)(F)F)cnc12 [Example 71]
melting point: 195.6 °C
EC50 [1]: 182 nM

Cc1cc(Oc2ccc(-c3ccn4c(CCCC(F)(F)F)cnc4c3C#N)cc2F)ccn1 [Example 73]
melting point: 234.1 °C
EC50 [1]: 1050 nM

N#Cc1c(-c2ccc(Oc3ccc(F)cc3)cc2)ccn2c(CC(F)(F)F)cnc12 [Example 74]
melting point: 163 °C
EC50 [1]: 170 nM

Cc1cc(Oc2ccc(-c3ccn4c(CCC5CC5)cnc4c3C#N)cc2F)ccn1 [Example 75]
melting point: 277.2 °C
EC50 [1]: 372 nM

N#Cc1c(-c2ccc(Oc3ccccc3F)cc2)ccn2c(CC(F)(F)F)cnc12 [Example 77]
melting point: 177.9 °C
EC50 [1]: 105 nM

N#Cc1c(-c2ccc(Oc3cccc(F)c3)cc2)ccn2c(CC(F)(F)F)cnc12 [Example 78]
melting point: 176 °C
EC50 [1]: 219 nM

N#Cc1c(-c2ccc(C(F)c3ccccc3)cc2)ccn2c(CC(F)(F)F)cnc12 (stereo not shown) [Example 79]
melting point: 173.4 °C
EC50 [1]: 257 nM

N#Cc1c(-c2ccc(Oc3ccccc3)cc2)ccn2c(CC(F)(F)F)cnc12 [Example 80]
melting point: 174.3 °C
GTPγS - hR2 PAM pEC50 [1]: 6.73

CC(O)(c1ccccc1)c1ccc(-c2ccn3c(CC(F)(F)F)cnc3c2C#N)cc1 (stereo not shown) [Example 81]
melting point: 102.7 °C
EC50 [1]: 525 nM

CC(C)(O)c1ccc(Oc2ccc(-c3ccn4c(CC(F)(F)F)cnc4c3C#N)cc2)cc1 [Example 82]
melting point: 143.2 °C
EC50 [1]: 44.7 nM

C[C@]1(O)CC[C@@H](Nc2ccc(-c3ccn4c(CC(F)(F)F)cnc4c3C#N)cc2Cl)CC1 [Example 89]
melting point: 161.6 °C
EC50 [1]: 275 nM

N#Cc1c(-c2ccc(N[C@H]3CC[C@H](O)CC3)cc2)ccn2c(CC(F)(F)F)cnc12 [Example 91, 7-[4-(4-hydroxy-cyclohexylamino)-phenyl]-3-(2,2,2-trifluoro-ethyl)-imidazo[1,2-a]pyridine-8-carbonitrile]
melting point: 137.5 °C
EC50 [1]: 1120 nM

N#Cc1c(-c2ccc(NC3CCOCC3)c(Cl)c2)ccn2c(CC(F)(F)F)cnc12 [Example 92]
melting point: 230.7 °C
GTPγS - hR2 PAM pEC50 [1]: 6.15

C[C@]1(O)CC[C@H](Nc2ccc(-c3ccn4c(CC(F)(F)F)cnc4c3C#N)cc2Cl)CC1 [Example 94]
melting point: 202.6 °C
EC50 [1]: 174 nM

N#Cc1c(-c2ccc(N[C@H]3CC[C@H](O)CC3)c(Cl)c2)ccn2c(CC(F)(F)F)cnc12 [Example 96, (trans)-7-[3-Chloro-4-(4-hydroxy-cyclohexylamino)-phenyl]-3-(2,2,2-trifluoro-ethyl)-imidazo[1,2-a]pyridine-8-carbonitrile]
melting point: 123.7 °C
EC50 [1]: 295 nM

FC(F)(F)Cc1cnc2c(Cl)c(-c3ccc(NC4CCOCC4)c(Cl)c3)ccn12 [Example 99]
melting point: 149.7 °C
EC50 [1]: 631 nM

C[C@]1(O)CC[C@H](Nc2ccc(-c3ccn4c(CC(F)(F)F)cnc4c3Cl)cc2Cl)CC1 [Example 100, (trans)-4-{2-Chloro-4-[8-chloro-3-(2,2,2-trifluoro-ethyl)-imidazo[1,2-a]pyridin-7-yl]-phenylamino}-1-methyl-cyclohexanol]
melting point: 205.1 °C
EC50 [1]: 126 nM

O[C@H]1CC[C@H](Nc2ccc(-c3ccn4c(CC(F)(F)F)cnc4c3Cl)cc2Cl)CC1 [Example 101, 4-{2-Chloro-4-[8-chloro-3-(2,2,2-trifluoro-ethyl)-imidazo[1,2-a]pyridin-7-yl]phenylamino}-cyclohexanol]
melting point: 183.1 °C
EC50 [1]: 155 nM

N#Cc1c(-c2ccc(O[C@H]3CC[C@@H](O)CC3)c(Cl)c2)ccn2c(CC(F)(F)F)cnc12 [Example 103]
melting point: 210.2 °C
EC50 [1]: 933 nM

CC(C)(O)C1CCN(c2ccc(-c3ccn4c(CC(F)(F)F)cnc4c3C#N)cc2)CC1 [Example 112]
melting point: 174 °C
EC50 [1]: 676 nM

N#Cc1c(-c2ccc(COc3cccc(F)c3)cc2)ccn2c(CC(F)(F)F)cnc12 [Example 114]
melting point: 207.1 °C
EC50 [1]: 141 nM

N#Cc1c(N2CCC3(CCc4ccccc4O3)CC2)ccn2c(CC(F)(F)F)cnc12 [Example 115]
melting point: 198.7 °C
EC50 [1]: 214 nM

N#Cc1c(N2CCc3c(oc4ccccc34)C2)ccn2c(CC(F)(F)F)cnc12 [Example 116]
melting point: 252.5 °C
EC50 [1]: 174 nM
